{"source": "patent US20020016981A1", "about": "“Methods for producing genetically modified plants, plant materials and plant products produced thereby” (priority 1998, published 2002)", "type_in_all_cases": "cell-based", "key": {"[1]": {"system": "stem segments from in vitro micropropagated shoot cultures of E. grandis x nitens clone 910.59", "assay": "Kanamycin inhibition of adventitious bud formation on stem segments (Example 2)", "conditions": "after 5 weeks in culture", "from_the_text": "(§1) The following examples are offered by way of illustration and not by way of limitation. Examples 1 to 3 describe experiments involving optimization of the regeneration and transformation protocols for Eucalyptus transformation. All refer to adventitious bud induction from stem segments obtained from in vitro micropropagated shoot cultures of E. grandis x nitens clone 910.59 (Fletcher Challenge Forests, Ltd., New Zealand). The tissue culture conditions in all examples, unless otherwise noted, were: temperature 20° C., 16 hour photoperiod, and cool white fluorescent lighting. These tissue culture conditions are generally preferred. All cultures were placed in 20×100 mm Petri dishes, 10 stem segments per dish.\nThis experiment was designed to determine the optimal concentration of kanamycin to be used for selection of transformed bud tissues. Explants were cultured as described at the end of Example 1, in combination with kanamycin levels of 0, 5, 10, 25, 50 or 100 mg/l. In vitro shoots of 3-4 cm in size were cut into single node segments, and the appropriate segments used. All leaves were removed prior to culture. Approximately thirty explants were used for each treatment. Cultures were transferred to fresh medium after 3 weeks in culture, and the percentage of bud inhibition determined after 5 weeks in culture."}, "[2]": {"system": "stem segments from in vitro micropropagated shoot cultures of E. grandis x nitens clone 910.59", "assay": "Adventitious bud induction from stem segments of different age at different BA concentrations (Example 1)", "conditions": "NAA 0.01 mg/l, after 5 weeks in culture", "from_the_text": "as §1\nThis experiment was designed to determine the best age of stem segments for adventitious bud induction. The basal medium used was full-strength Murashige and Skoog (MS) medium (Sigma M5519) and sucrose 30 g/l. The age of stem segments (apical, 1st, 2nd, 3rd and 4th nodes) were tested in combination with the concentrations of Benzylaminopurine (BA-1, 2 and 3 mg/l). All media contained Naphthalene acetic acid (NAA) at 0.01 mg/l.\nIn vitro shoots of 3-4 cm were cut into single node segments. The leaves were removed prior to culture. Approximately twenty explants were cultured for each treatment. Cultures were transferred to fresh media every 3 weeks. Adventitious bud development assessments were done after 5 weeks in culture. The percentages of explants forming adventitious shoots for each treatment are listed below."}, "[3]": {"system": "Eucalyptus nodal sections", "assay": "Acetosyringone in the co-cultivation medium, GUS staining of explants (Example 8)", "description": "The inclusion of a phenolic compound, acetosyringone, in the co-cultivation medium was tested. Eucalyptus nodal sections were infected with Agrobacterium containing the double 35S-GUS construct, as described in Example 5, and then allowed to co-cultivate on MS+0.4% glucose medium containing acetosyringone, as described in Example 5. Following co-cultivation, explants were placed onto bud induction/selection medium for subsequent growth. Explants were stained for GUS activity as in Example 5 at 4-5 weeks post-infection."}}, "data": [{"smiles": "NC[C@H]1O[C@H](O[C@H]2[C@H](O)[C@@H](O[C@H]3O[C@H](CO)[C@@H](O)[C@H](N)[C@H]3O)[C@H](N)C[C@@H]2N)[C@H](O)[C@@H](O)[C@@H]1O", "note": "[Kanamycin, kanamycin]", "values": [{"measurement": "inhibition at 5 µg/mL", "setting": "[1]; 840 h, kanamycin 5 mg/l, read-out: % Bud Inhibition Relative To Control", "result": 20, "unit": "%"}, {"measurement": "inhibition at 10 µg/mL", "setting": "[1]; 840 h, kanamycin 10 mg/l, read-out: % Bud Inhibition Relative To Control", "result": 41, "unit": "%"}, {"measurement": "inhibition at 25 µg/mL", "setting": "[1]; 840 h, kanamycin 25 mg/l, read-out: % Bud Inhibition Relative To Control", "result": 59, "unit": "%"}, {"measurement": "inhibition at 50 µg/mL", "setting": "[1]; 840 h, kanamycin 50 mg/l, read-out: % Bud Inhibition Relative To Control", "result": 81, "unit": "%"}, {"measurement": "inhibition at 100 µg/mL", "setting": "[1]; 840 h, kanamycin 100 mg/l, read-out: % Bud Inhibition Relative To Control", "result": 96, "unit": "%"}, {"measurement": "% of Stem Segments Forming Adventitious Buds", "setting": "[1]; kanamycin 5 mg/l", "result": "64% (18/28)"}, {"measurement": "% of Stem Segments Forming Adventitious Buds", "setting": "[1]; kanamycin 10 mg/l", "result": "47% (14/30)"}, {"measurement": "% of Stem Segments Forming Adventitious Buds", "setting": "[1]; kanamycin 25 mg/l", "result": "33% (10/30)"}, {"measurement": "% of Stem Segments Forming Adventitious Buds", "setting": "[1]; kanamycin 50 mg/l", "result": "15% (14/31)"}, {"measurement": "% of Stem Segments Forming Adventitious Buds", "setting": "[1]; kanamycin 100 mg/l", "result": "3% (1/30)"}]}, {"smiles": "c1ccc(CNc2ncnc3[nH]cnc23)cc1", "note": "[BA, Benzylaminopurine]", "values": [{"measurement": "percentages of explants forming adventitious shoots", "setting": "[2]; Apical Shoot Tips, BA 1 mg/l", "result": "25% (5/20)"}, {"measurement": "percentages of explants forming adventitious shoots", "setting": "[2]; Apical Shoot Tips, BA 2 mg/l", "result": "5% (1/20)"}, {"measurement": "percentages of explants forming adventitious shoots", "setting": "[2]; Apical Shoot Tips, BA 3 mg/l", "result": "33% (7/20)"}, {"measurement": "percentages of explants forming adventitious shoots", "setting": "[2]; First Node, BA 1 mg/l", "result": "57% (12/21)"}, {"measurement": "percentages of explants forming adventitious shoots", "setting": "[2]; First Node, BA 2 mg/l", "result": "35% (7/20)"}, {"measurement": "percentages of explants forming adventitious shoots", "setting": "[2]; First Node, BA 3 mg/l", "result": "20% (4/20)"}, {"measurement": "percentages of explants forming adventitious shoots", "setting": "[2]; Fourth Node, BA 1 mg/l", "result": "45% (9/20)"}, {"measurement": "percentages of explants forming adventitious shoots", "setting": "[2]; Fourth Node, BA 2 mg/l", "result": "38% (8/21)"}, {"measurement": "percentages of explants forming adventitious shoots", "setting": "[2]; Fourth Node, BA 3 mg/l", "result": "10% (2/20)"}, {"measurement": "percentages of explants forming adventitious shoots", "setting": "[2]; Second Node, BA 1 mg/l", "result": "76% (16/21)"}, {"measurement": "percentages of explants forming adventitious shoots", "setting": "[2]; Second Node, BA 2 mg/l", "result": "12% (6/20)"}, {"measurement": "percentages of explants forming adventitious shoots", "setting": "[2]; Second Node, BA 3 mg/l", "result": "20% (4/20)"}, {"measurement": "percentages of explants forming adventitious shoots", "setting": "[2]; Third Node, BA 1 mg/l", "result": "75% (15/20)"}, {"measurement": "percentages of explants forming adventitious shoots", "setting": "[2]; Third Node, BA 2 mg/l", "result": "15% (3/20)"}, {"measurement": "percentages of explants forming adventitious shoots", "setting": "[2]; Third Node, BA 3 mg/l", "result": "15% (3/20)"}]}, {"smiles": "COc1cc(C(C)=O)cc(OC)c1O", "note": "[Acetosyringone, acetosyringone]", "values": [{"measurement": "% of Total GUS-Positive Explants in Buds", "setting": "[3]; 5 μM acetosyringone in MS+0.4% glucose co-cultivation medium, GUS staining 4-5 weeks post-infection", "result": 8, "unit": "%"}, {"measurement": "effect on transformation efficiency", "setting": "[3]; 5 μM acetosyringone in the co-cultivation medium", "result": "enhances transformation efficiency"}]}]}
